Data: paper PMC5374710, “Discovery of the first dual GSK3β inhibitor/Nrf2 inducer. A new multitarget therapeutic strategy for Alzheimer’s disease” (Scientific Reports, 2017)

Test system: HO-1
Assay: HO-1 expression in AREc32 cells after scramble or GSK3β siRNA (western blot)
Type: cell-based, human
Details: 10 μM, 24 h
Method: To further evaluate the potential relationship between GSK3β inhibition and the Nrf2 induction properties we used two different approaches. […] Cells were treated with compound 5m at increasing concentrations alone or in presence of Li (10 mM) during 24 h and thereafter, luciferase activity was evaluated. […] Secondly, to corroborate the independence of the Nrf2 induction properties of our derivatives from their GSK3β inhibitory properties, we used GSK3β knock down experimental conditions using siRNA. […] After knockdown of GSK3β, AREc32 cells were incubated with compound 5m (10 μM) during 24 h (Fig. 4B). Subsequently, luciferase activity and HO-1 expression were analyzed. […] Similar results were obtained when HO-1 expression was analyzed (Fig. 4D), compound 5m increased HO-1 expression 3.9 times after scramble treatment and 3.5 times after knockdown of GSK3β showing no statistical differences between both conditions. […]
Figure 4 Nrf2 induction properties are independent of the GSK3β inhibitory activity. […] (D) HO-1 expression induced by compound 5m (10 μM) measured at the same experimental conditions used previously. Values are expressed as mean ± SEM of three independent experiments in duplicate. ^###p < 0.001; ^##p < 0.01; ^#p < 0.05 compared to the correspondent basal conditions. […]

Cc1[nH]nc2c1C(c1ccc(Br)cc1)C(C#N)=C(N)O2 (centres unmarked) [Compound 5m, 6-Amino-4-(4-bromophenyl)-3-methyl-2,4-dihydropyrano[2,3-c]pyrazole-5-carbonitrile] was tested, and the HO-1 expression increase (after knockdown of GSK3β) was 3.5 times and the HO-1 expression increase (after scramble treatment) was 3.9 times.
